We go through 26 compounds from patent US11590116B2 (THERAVANCE BIOPHARMA R&D IP, LLC, priority 2019, dated 2023).

For assay [1], the target named is T1, recombinant human ALK5 (TGF-βR1) protein (Homo sapiens, UniProt P36897).
T1 construct: purchased Life Technologies PR9075A
T1 sequence (P36897 34-503): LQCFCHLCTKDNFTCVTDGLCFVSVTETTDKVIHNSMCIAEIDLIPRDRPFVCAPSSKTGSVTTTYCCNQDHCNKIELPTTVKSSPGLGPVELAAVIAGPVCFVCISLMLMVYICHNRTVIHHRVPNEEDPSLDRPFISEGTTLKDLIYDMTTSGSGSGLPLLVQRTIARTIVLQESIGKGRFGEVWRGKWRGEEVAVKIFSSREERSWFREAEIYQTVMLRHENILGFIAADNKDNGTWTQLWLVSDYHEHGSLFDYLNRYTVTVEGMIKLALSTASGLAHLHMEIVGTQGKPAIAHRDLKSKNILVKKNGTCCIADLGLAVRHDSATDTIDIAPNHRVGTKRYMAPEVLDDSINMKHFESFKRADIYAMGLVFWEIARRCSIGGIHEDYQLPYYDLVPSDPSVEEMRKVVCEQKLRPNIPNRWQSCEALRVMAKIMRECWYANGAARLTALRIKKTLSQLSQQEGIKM
Briefly: Biochemical ALK5 (TGF-βR1) assay to measure pKi (LANCE Ultra ULight kinase assay). The note with it: apparent pKi from pIC50 by Cheng-Prusoff, read-out: ALK5 pKi (converted). In a few lines: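 Compounds (10 μM to 25 pM) preincubated 60 minutes at room temperature with enzyme, then reaction run 60 minutes at 37° C with ATP added as 125 μM (5× final). Stopped with EDTA plus Eu-anti-phospho-Topoisomerase 2-alpha (Thr1342) antibody, TR-FRET read at 665 nm; pIC50 converted to pKi via Cheng-Prusoff.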

The subject of assay [2] is TGF-β-stimulated SMAD3 phosphorylation in BEAS-2B cells. Briefly: Cellular ALK5 potency assay, inhibition of TGF-β stimulated pSMAD3 formation in BEAS-2B cells. The assay is classed as cell-based. Particulars: Homo sapiens; inhibition of TGF-β stimulated pSMAD3 formation, BEAS-2B cells; read-out: BEAS2B pIC50 (converted). In a few lines:
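pSMAD3 was quantified by AlphaLISA in BEAS-2B lysates after 10 ng/mL TGF-β (final) for 30 min. Before stimulation, cells received compound for 1 h at 37° C in supplemented HBSS. Values are pIC50, relative to TGF-β-stimulated cells without compound.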

As for `Cc1cccc(-c2[nH]cnc2-c2ccc3ncc(N4CC5(CCCNC5)C4)cc3c2)n1` [Compound 159, 3-(2,8-diazaspiro[3.5]nonan-2-yl)-6-[5-(6-methyl-2-pyridyl)-1H-imidazol-4-yl]quinoline], in assay [1], the Ki is below 0.0316 nM. Besides, the IC50 in assay [2] is below 20 nM.

As to `Cc1cccc(-c2n[nH]cc2-c2ccc3ncc(-c4cnn5c4NCCC5)cc3n2)n1` [Compound 525, 2-[3-(6-methyl-2-pyridyl)-1H-pyrazol-4-yl]-7-(4,5,6,7-tetrahydropyrazolo[1,5-a]pyrimidin-3-yl)-1,5-naphthyridine], the Ki in assay [1] was below 0.0316 nM. In addition, the IC50 in assay [2] is below 20 nM.

With `Cc1cccc(-c2[nH]cnc2-c2ccc3ncc(-c4ncc(CN5C[C@@H](C)N[C@@H](C)C5)s4)cc3c2)n1` [Compound 1028, 5-[[(3S,5R)-3,5-dimethylpiperazin-1-yl]methyl]-2-[6-[5-(6-methyl-2-pyridyl)-1H-imidazol-4-yl]-3-quinolyl]thiazole], the Ki in assay [1] was 0.0398 to 0.316 nM. For the same compound, the IC50 in assay [2] was below 20 nM.

For `Cc1cccc(-c2n[nH]cc2-c2ccc3ncc(CO)cc3n2)n1` [Compound 126, [6-[3-(6-methyl-2-pyridyl)-1H-pyrazol-4-yl]-1,5-naphthyridin-3-yl]methanol], the Ki in assay [1] was 0.0398 to 0.316 nM. In addition, the IC50 in assay [2] was 25.1 to 158 nM.

As to `CNc1ccnc2ccc(-c3c[nH]nc3-c3cccc(C)n3)nc12` [Compound 838, N-methyl-6-[3-(6-methyl-2-pyridyl)-1H-pyrazol-4-yl]-1,5-naphthyridin-4-amine], the Ki in assay [1] is 0.398 to 3.16 nM. For the same compound, the IC50 in assay [2] was 25.1 to 158 nM.

For `Cc1nc(-c2[nH]cnc2-c2ccc3ncc(-c4cnn(CCN)c4)cc3n2)ccc1F` [Compound 225, 2-[4-[6-[5-(5-fluoro-6-methyl-2-pyridyl)-1H-imidazol-4-yl]-1,5-naphthyridin-3-yl]pyrazol-1-yl]ethanamine], the Ki in assay [1] is 0.0398 to 0.316 nM. Further, the IC50 in assay [2] was 25.1 to 158 nM.

Turning to `COC(=O)[C@@H]1CCN(CCNc2cnc3ccc(-c4nc[nH]c4-c4cccc(C)n4)cc3c2)C1` [Compound 729, methyl (3R)-1-[2-[[6-[5-(6-methyl-2-pyridyl)-1H-imidazol-4-yl]-3-quinolyl]amino]ethyl]pyrrolidine-3-carboxylate], the Ki in assay [1] is 0.0398 to 0.316 nM. Further, the IC50 in assay [2] was 25.1 to 158 nM.

Turning to `Cc1cccc(-c2n[nH]cc2-c2ccc3ncc(N4CC(C)N(CCN)C(C)C4)cc3n2)n1` (stereo not shown) [Compound 283, 2-[2,6-dimethyl-4-[6-[3-(6-methyl-2-pyridyl)-1H-pyrazol-4-yl]-1,5-naphthyridin-3-yl]piperazin-1-yl]ethanamine], the Ki in assay [1] is 0.0398 to 0.316 nM. Moreover, the IC50 in assay [2] is 200 to 1260 nM.

For `COC(=O)[C@@H]1CN(CCNc2cnc3ccc(-c4nc[nH]c4-c4cccc(C)n4)cc3c2)CCN1` [Compound 717, methyl (2S)-4-[2-[[6-[5-(6-methyl-2-pyridyl)-1H-imidazol-4-yl]-3-quinolyl]amino]ethyl]piperazine-2-carboxylate], the Ki in assay [1] was 0.0398 to 0.316 nM. Further, in assay [2], the IC50 is 25.1 to 158 nM.

Turning to `Cc1cccc(-c2[nH]cnc2-c2ccc3ncc(C(=O)OC4CCCCNC4)cc3c2)n1` (stereo not shown) [Compound 773, azepan-3-yl 6-[5-(6-methyl-2-pyridyl)-1H-imidazol-4-yl]quinoline-3-carboxylate], the Ki in assay [1] is 0.0398 to 0.316 nM. The IC50 in assay [2] is 25.1 to 158 nM.

As for `Cc1cccc(-c2[nH]cnc2-c2ccc3ncc(NCCC4CNC4)cc3c2)n1` [Compound 116, N-[2-(azetidin-3-yl)ethyl]-6-[5-(6-methyl-2-pyridyl)-1H-imidazol-4-yl]quinolin-3-amine], the Ki in assay [1] was 0.0398 to 0.316 nM. For the same compound, the IC50 in assay [2] is 25.1 to 158 nM.

Take `Cc1cccc(-c2[nH]ncc2-c2ccc3ncc(C(=O)OC[C@H]4CCCCN4)cc3c2)n1` (racemic) [Compound 1194, [rac-(2R)-2-piperidyl]methyl 6-[5-(6-methyl-2-pyridyl)-1H-pyrazol-4-yl]quinoline-3-carboxylate]: the Ki in assay [1] is 0.0398 to 0.316 nM. Moreover, the IC50 in assay [2] was below 20 nM.

Turning to `Cc1nc(-c2n[nH]cc2-c2ccc3ncc(NCCN4CCCC4)cc3n2)ccc1F` [Compound 381, 6-[3-(5-fluoro-6-methyl-2-pyridyl)-1H-pyrazol-4-yl]-N-(2-pyrrolidin-1-ylethyl)-1,5-naphthyridin-3-amine], in assay [1], the Ki is below 0.0316 nM. Besides, the IC50 in assay [2] was 25.1 to 158 nM.

Consider `Cc1cccc(-c2[nH]cnc2-c2ccc3ncc(NCCN4CCNCC4)cc3c2)n1` [Compound 122, 6-[5-(6-methyl-2-pyridyl)-1H-imidazol-4-yl]-N-(2-piperazin-1-ylethyl)quinolin-3-amine], for which the Ki in assay [1] was 0.0398 to 0.316 nM. The IC50 in assay [2] was 25.1 to 158 nM.

With `Cc1cccc(-c2[nH]cnc2-c2ccc3ncc(-c4cncc(C(=O)O[C@H]5CCN(C)C5)c4)cc3c2)n1` [Compound 704, [(3S)-1-methylpyrrolidin-3-yl] 5-[6-[5-(6-methyl-2-pyridyl)-1H-imidazol-4-yl]-3-quinolyl]pyridine-3-carboxylate], the Ki in assay [1] is 0.0398 to 0.316 nM. Moreover, in assay [2], the IC50 was 25.1 to 158 nM.

For `Cc1cccc(-c2nc3ccccn3c2-c2ccc3ncc(NCCN4CCN(C(C)C)CC4)cc3n2)n1` [Compound 120, N-(2-(4-isopropylpiperazin-1-yl)ethyl)-6-(2-(6-methylpyridin-2-yl)imidazo[1,2-a]pyridin-3-yl)-1,5-naphthyridin-3-amine], the Ki in assay [1] is 0.0398 to 0.316 nM. The IC50 in assay [2] is 25.1 to 158 nM.

With `CNCCn1cc(-c2cnc3ccc(-c4c[nH]nc4-c4cccc(C(F)F)n4)nc3c2)cn1` [Compound 481, 2-[4-[6-[3-[6-(difluoromethyl)-2-pyridyl]-1H-pyrazol-4-yl]-1,5-naphthyridin-3-yl]pyrazol-1-yl]-N-methyl-ethanamine], the Ki in assay [1] was below 0.0316 nM. Besides, the IC50 in assay [2] was 25.1 to 158 nM.

For `Cc1cccc(-c2[nH]cnc2-c2ccc3ncc(C(=O)OC4CNC4)cc3c2)n1` [Compound 739, azetidin-3-yl 6-[5-(6-methyl-2-pyridyl)-1H-imidazol-4-yl]quinoline-3-carboxylate], in assay [1], the Ki was 0.0398 to 0.316 nM. The IC50 in assay [2] is 25.1 to 158 nM.

With `Cc1cccc(-c2[nH]cnc2-c2ccc3ncc(-c4ccc(C(=O)OC5CNC5)s4)cc3c2)n1` [Compound 1006, azetidin-3-yl 5-(6-(5-(6-methylpyridin-2-yl)-1H-imidazol-4-yl)quinolin-3-yl)thiophene-2-carboxylate], in assay [1], the Ki was 0.0398 to 0.316 nM. Moreover, the IC50 in assay [2] is 25.1 to 158 nM.

As to `Cc1cccc(-c2n[nH]cc2-c2ccc3ncc(-c4ccc(C5CCCN(C(C)C)C5)cc4)cc3n2)n1` (stereo not shown) [Compound 265, 7-[4-(1-isopropyl-3-piperidyl)phenyl]-2-[3-(6-methyl-2-pyridyl)-1H-pyrazol-4-yl]-1,5-naphthyridine], the Ki in assay [1] is 0.0398 to 0.316 nM. In addition, the IC50 in assay [2] was 200 to 1260 nM.

As to `Cc1cccc(-c2[nH]ncc2-c2ccc3ncc(C(=O)O[C@H]4CCNC4)cc3n2)n1` [Compound 210, [(3S)-pyrrolidin-3-yl]6-[5-(6-methyl-2-pyridyl)-1H-pyrazol-4-yl]-1,5-naphthyridine-3-carboxylate], the Ki in assay [1] was 0.398 to 3.16 nM. Further, the IC50 in assay [2] is 25.1 to 158 nM.

Consider `COc1nc(-c2ccc3ncc(Br)cc3c2)c(-c2cccc(C)n2)[nH]1` [Compound 1202, 3-bromo-6-[2-methoxy-5-(6-methyl-2-pyridyl)-1H-imidazol-4-yl]quinoline], for which the Ki in assay [1] was 0.398 to 3.16 nM. Besides, the IC50 in assay [2] was 25.1 to 158 nM.

Regarding `Cc1cccc(-c2nc3n(c2-c2ccc4ncc(-c5cn[nH]c5)cc4c2)CCNC3)n1` [Compound 635, 6-(2-(6-methylpyridin-2-yl)-5,6,7,8-tetrahydroimidazo[1,2-a]pyrazin-3-yl)-3-(1H-pyrazol-4-yl)quinoline], the Ki in assay [1] was 0.0398 to 0.316 nM. Also, the IC50 in assay [2] is 200 to 1260 nM.

Consider `Cc1cccc(-c2n[nH]cc2-c2ccc3ncc(-c4cn(Cc5cnc6c(c5)CNCC6)nn4)cc3n2)n1` [Compound 325, 2-[3-(6-methyl-2-pyridyl)-1H-pyrazol-4-yl]-7-[1-(5,6,7,8-tetrahydro-1,6-naphthyridin-3-ylmethyl)triazol-4-yl]-1,5-naphthyridine], for which the Ki in assay [1] is below 0.0316 nM. In addition, in assay [2], the IC50 is 200 to 1260 nM.

As to `Cc1cccc(-c2n[nH]cc2-c2ccc3ncc(-c4nc(CN5CCN(C(C)C)CC5)co4)cc3n2)n1` [Compound 246, 4-[(4-isopropylpiperazin-1-yl)methyl]-2-[6-[3-(6-methyl-2-pyridyl)-1H-pyrazol-4-yl]-1,5-naphthyridin-3-yl]oxazole], the Ki in assay [1] is 0.0398 to 0.316 nM. The IC50 in assay [2] was 25.1 to 158 nM.

On to `Cc1cccc(-c2n[nH]cc2-c2ccc3ncc(N(C)C4CCNC4)cc3n2)n1` (racemic) [Compound 242, N-methyl-6-[3-(6-methyl-2-pyridyl)-1H-pyrazol-4-yl]-N-[rac-(3R)-pyrrolidin-3-yl]-1,5-naphthyridin-3-amine], for which the Ki in assay [1] is 0.0398 to 0.316 nM. For the same compound, the IC50 in assay [2] is 25.1 to 158 nM.
